Legend:
[1] = system: experimental DTH reaction in mice; assay: In vivo bioassay of inhibition of experimental DTH reactivity (oxazolone ear swelling); set-up: species or system mice (BALB/c or CD1); key to effect on the experimental DTH reaction (monosaccharides): "N.E." indicates that no effect was observed at the tested dosage range of 0.000004-4 µg/gm mouse; conditions: for "R" value: inhibitory, 0 = no effect; for effect on the experimental DTH reaction (monosaccharides): dosage range of 0.000004-4 µg/gm mouse; for DTH: at that dose, value in parentheses in the cell taken as positive control, not reported
Protocol: Groups of inbred BALB/c (Jackson Laboratories, Bar Harbor, ME) or of outbred CD1 (Weizmann Institute Animal Breeding Center, Rehovot, Israel) mice are sensitized on the shaved abdominal skin with 100 µl of 2% oxazolone (OX) in acetone/olive oil (4/1, v/v) applied topically. DTH sensitivity is elicited 5 days later as follows: mice are challenged with 20 µl of 0.5% OX (10 µl administered topically to each side of the ear) in acetone/olive oil. A constant area of the ear is measured immediately before challenge and 24 and 48 h later with a Mitutoyo engineer's micrometer. The individual measuring ear swelling is blinded to the identity of the groups of mice. The increment (△) of ear swelling is expressed as the mean in units of 10^-2 mm or 10^-4 inch (+SE) depending on the micrometer that is used. Percent inhibition is calculated as follows: %Inhibition= 1-((Treated-negative control)/(positive control-negative control)) [formula]
Mice are treated with LMWH as in Example 5.1, injected the day before primary sensitization to OX. On the fifth day after sensitization to OX, the mice are challenged to induce a DTH reaction, as described above.
The positive control is the DTH reaction elicited in immunized mice in the absence of treatment with LMWH. The negative control is the background swelling produced by the antigen in naive (non-immunized) mice.
BALB/c mice (at least 5 mice per group) were sensitized on the shaved abdomen with 3% 4-ethoxymethylene-2-phenyl oxazolone (OX; BDH Chemicals, GB) in acetone/olive oil applied topically. DTH sensitivity was elicited 5 days later as follows. Mice were challenged with 0.5% OX in acetone/olive oil. The ear was measured immediately before challenge and 24 h later with Mitutoyo engineer's micrometer (Japan). The individual measuring the swelling of the ear was blinded to the identity of the groups of mice. To interfere with DTH response, the low molecular weight immuno-regulatory fractions, diluted in PBS, were administrated subcutaneously into the back of the treated mice at the indicated time schedules and concentrations. Treated mice were inspected during and after (>2 months) the treatment and no major side-effects were observed clinically.
In particular, CD1 mice (available from the Weizmann Institute Animal Breeding Center, Rehovot, Israel), 4-12 mice per group, were treated as described in Section 5.2 or 6.8.

[2] = system: secretion of active TNF-α by activated human CD4+ T cells; assay: Bioassay of TNF-α activity using human CD4+ T cells derived from PBLs (human PBL bioassay); conditions: for Bioassay of TNF Activity, in words: conc range of 1 µg/ml - 0.01 pg/ml, inconsistent = not the same result in all three bioassays; for "R" value: zero assigned where no effect is observed

Compound	effect on the experimental DTH reaction, in words (disaccharide markers) ([1]; CD1 mice, s.c.)	"R" value ([1]; CD1 mice, s.c.)	Bioassay of TNF Activity, in words [2]	effect on the experimental DTH reaction (monosaccharides) ([1]; CD1 mice, s.c.)	Inhmax ([1]; CD1 mice, s.c.)	DTH ([1]; CD1 mice, s.c.)	other results
N[C@H]1C(O)O[C@H](COS(=O)(=O)O)[C@@H](O[C@@H]2OC(C(=O)O)=C[C@H](O)[C@H]2OS(=O)(=O)O)[C@@H]1O (some centres unmarked) [H-8892]	neutral and N.E.	0 % x (μg/gm)^-1	No effect				"R" value [2]: 0 % x (pg/ml)^-1
N[C@H]1C(O)O[C@H](CO)[C@@H](O[C@@H]2OC(C(=O)O)=C[C@H](O)[C@H]2OS(=O)(=O)O)[C@@H]1O (some centres unmarked) [H-9142]	neutral and N.E.	0 % x (μg/gm)^-1	Inconsistent				
CC(=O)N[C@H]1C(O)O[C@H](CO)[C@@H](O)[C@@H]1O (some centres unmarked) [NAc-GlcN, N-Acetylglucosamine]		0 % x (μg/gm)^-1		N.E.			
O=S(=O)(O)N[C@H]1C(O)O[C@H](CO)[C@@H](O)[C@@H]1OS(=O)(=O)O (stereo partly drawn) [GlcN-2,3S, D-Glucosamine-2,3-disulfate]		5.67 x 10^4 % x (μg/gm)^-1			68%	6.3 ± 1 (19.7 ± 1.2) 10^-2 mm	
O=S(=O)(O)N[C@H]1C(O)O[C@H](CO)[C@@H](O)[C@@H]1O (stereo partly drawn) [GlcN-2S, D-Glucosamine-2-N-sulfate]		0 % x (μg/gm)^-1		N.E.			
N[C@H]1C(O)O[C@H](COS(=O)(=O)O)[C@@H](O[C@@H]2OC(C(=O)O)=C[C@H](O)[C@H]2O)[C@@H]1O (some centres unmarked) [H-9017]	neutral and N.E.	0 % x (μg/gm)^-1	No effect				"R" value [2]: 0 % x (pg/ml)^-1
CC(=O)N[C@H]1C(O)O[C@H](CO)[C@@H](O[C@@H]2OC(C(=O)O)=C[C@H](O)[C@H]2OS(=O)(=O)O)[C@@H]1O (some centres unmarked) [H-8767]	N.E.	0 % x (μg/gm)^-1	Inconsistent				
N[C@H]1C(O)O[C@H](CO)[C@@H](O)[C@@H]1OS(=O)(=O)O (stereo partly drawn) [GlcN-3S, D-Glucosamine-3-sulfate]		0 % x (μg/gm)^-1		N.E.			
O=C(O)C1=C[C@H](O)[C@@H](OS(=O)(=O)O)[C@H](O[C@H]2[C@H](O)[C@@H](NS(=O)(=O)O)C(O)O[C@@H]2COS(=O)(=O)O)O1 (stereo partly drawn) [H-9267, 2-O-sulfate-4-deoxy-4-en-iduronic acid-(α-1,4)-2-deoxy-2-N-sulfate-6-O-sulfateglucosamine]		1.60 x 10^5 % x (μg/gm)^-1	Inconsistent		64%	7.2 ± 1 (19.6 ± 1.2) 10^-2 mm	DTH Response ([1]; at the dose giving Inhmax, subcutaneous): 3.5 ± 1 10^-2mm; Dose ([1]; dose giving Inhmax, subcutaneous): 0.0005 µg/gm mouse; "R" value ([1]; maximum % inhibition of DTH divided by the dose giving it, s.c.): 160,000 % x (µg/gm)^-1; Inhmax ([1]; maximum inhibition of DTH, subcutaneous): 80%
CC(=O)N[C@H]1C(O)O[C@H](COS(=O)(=O)O)[C@@H](O[C@@H]2OC(C(=O)O)=C[C@H](O)[C@H]2OS(=O)(=O)O)[C@@H]1O (stereo partly drawn) [H-9517, 2-O-sulfate-4-deoxy-4-en-iduronic acid-(α-1,4)-2-deoxy-2-N-acetyl-6-O-sulfateglucosamine]		1.55 x 10^6 % x (μg/gm)^-1	Inconsistent^c		62%	7.6 ± 1 (20.4 ± 0.7) 10^-2 mm	
N[C@H]1C(O)O[C@H](COS(=O)(=O)O)[C@@H](O)[C@@H]1O (stereo partly drawn) [GlcN-6S, D-Glucosamine-6-sulfate]		0 % x (μg/gm)^-1		N.E.			
O=C(O)C1=C[C@H](O)[C@@H](O)[C@H](O[C@H]2[C@H](O)[C@@H](NS(=O)(=O)O)C(O)O[C@@H]2CO)O1 (some centres unmarked) [H-1145]	neutral and N.E.	0 % x (μg/gm)^-1					
O=S(=O)(O)N[C@H]1C(O)O[C@H](COS(=O)(=O)O)[C@@H](O)[C@@H]1O (stereo partly drawn) [GlcN-2,6S, D-Glucosamine-2,6-disulfate]					61%	7.7 ± 1 (19.7 ± 1.2) 10^-2 mm	
